Test results published in patent US20250296938A1, “Compounds that Interact with the Ras Superfamily for the Treatment of Cancers, Inflammatory Diseases, Rasopathies, and Fibrotic Disease” (SHY Therapeutics, LLC, priority 2018, published 2025).
Where two headings read alike, the source gives them in different places.

Key:
Experiment in all cases: Ras GTP binding domain inhibition assay (Cy3-GTP/Cy5-GTP competition)
[1] = target: T1, KRas G12D mutant (Homo sapiens, UniProt P01116, G12D); settings: 20 μM
T1 construct: fused on or other part: His tag, used for capture on nickel-coated plates
Outline: (§1)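 His-tagged Ras immobilized on nickel-coated wells in Tris buffer (pH 7.4 or 7.0) with 1 mM MgCl2, 1 mM DTT, 1% DMSO. Compound (20 μM, or serial dilution for IC50) incubated 3 hours at room temperature, ± Sos (residues 556-1049) in final hour. Bound 100 nM Cy3-/Cy5-GTP read after 45 minutes and washing.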

[2] = system: KRas Q61H mutant; design: species or system human; settings: 20 μM
Outline: as §1

[3] = system: KRas G12C mutant; design: species or system human; settings: 20 μM
Outline: as §1

[4] = system: KRas wild type; design: species or system human; settings: 20 μM; for KRas wild type: % inh.: without SOS; for KRas wild type % inh.: without SOS (Table 7A)
Outline: as §1

[5] = with SOS, read-out: KRas G-12D mutant + SOS: % inh.
[6] = without SOS, read-out: KRas G12D mutant: % inh.
[7] = with SOS (Table 7A), read-out: KRas G12D mutant + SOS: % inh.
[8] = without SOS (Table 7A), read-out: KRas G12D mutant: % inh.

Structure (SMILES)	inhibition at 20 µM [1, 5] [%]	inhibition at 20 µM [1, 6] [%]	KRas Q61H mutant + SOS: % inh. ([2]; with SOS)	KRas Q61H mutant: % inh. ([2]; without SOS)	KRas G12C mutant + SOS: % inh. ([3]; with SOS)	KRas G12C mutant: % inh. ([3]; without SOS)	KRas wild type + SOS: % inh. ([4]; with SOS)	KRas wild type: % inh. [4]	inhibition at 20 µM [1, 7] [%]	inhibition at 20 µM [1, 8] [%]	KRas Q61H mutant + SOS: % inh. ([2]; with SOS (Table 7A))	KRas Q61H mutant: % inh. ([2]; without SOS (Table 7A))	KRas G12C mutant + SOS: % inh. ([3]; with SOS (Table 7A))	KRas G12C mutant: % inh. ([3]; without SOS (Table 7A))	KRas wild type + SOS: % inh. ([4]; with SOS (Table 7A))	KRas wild type % inh. [4]
COC(=O)c1nc(C2NCCN2C)nc(O)c1O (centres unmarked)	26 to 50	51 to 75	C (51-75% inhibition)	C (51-75% inhibition)	C (51-75% inhibition)	D (76-100% inhibition)	B (26-50% inhibition)	C (51-75% inhibition)								
COc1c(F)cccc1-c1sc2nc(-c3nccn3C)nc(NC3CCC(OC)C3)c2c1-c1ccccc1 (centres unmarked) [drawing 886]									1 to 25	1 to 25	B (26-50% inhibition)	A (1-25% inhibition)	A (1-25% inhibition)	B (26-50% inhibition)	A (1-25% inhibition)	B (26-50% inhibition)
Cn1ccnc1-c1nc(O)c(O)c(C(=O)NC2CCCC2)n1 [drawing 827]	26 to 50	51 to 75	C (51-75% inhibition)	C (51-75% inhibition)	B (26-50% inhibition)	C (51-75% inhibition)	B (26-50% inhibition)	C (51-75% inhibition)								
COC1CCN(c2nc(-c3nccn3C)nc3sc(Br)c(-c4ccccc4)c23)C1 (centres unmarked) [drawing 822]	51 to 75	26 to 50	C (51-75% inhibition)	B (26-50% inhibition)	D (76-100% inhibition)	B (26-50% inhibition)	D (76-100% inhibition)	C (51-75% inhibition)								
COC1CCN(c2nc(-c3nccn3C)nn3cc(-c4ccccc4)c(-c4ccccc4)c23)C1 (centres unmarked) [drawing 796]	1 to 25	26 to 50	B (26-50% inhibition)	B (26-50% inhibition)	B (26-50% inhibition)	A (1-25% inhibition)	A (1-25% inhibition)	B (26-50% inhibition)								
CC(C)COc1ccc(-c2csc3c(O)nc(-c4nccn4Cc4ccccn4)nc23)cn1 [drawing 899]									51 to 75	76 to 100	D (76-100% inhibition)	C (51-75% inhibition)	C (51-75% inhibition)	C (51-75% inhibition)	C (51-75% inhibition)	D (76-100% inhibition)
Cn1ccc(-c2sc3nc(-c4nccn4C)nc(N[C@H]4C[C@@H](O)C4)c3c2-c2ccccc2)n1 [drawing 908]									0	0	0 (0% inhibition)	A (1-25% inhibition)	A (1-25% inhibition)	A (1-25% inhibition)	0 (0% inhibition)	A (1-25% inhibition)
COC1CCN(c2nc(-c3nccn3C)nc3sc(-c4ccc(CO)cc4)c(-c4ccccc4)c23)C1.Cl (centres unmarked)	51 to 75	1 to 25	D (76-100% inhibition)	0 (0% inhibition)	D (76-100% inhibition)	0 (0% inhibition)	D (76-100% inhibition)	0 (0% inhibition)								
Cc1cnc(-c2nc(O)c3scc(-c4ccccn4)c3n2)n1C [drawing 808]	1 to 25	51 to 75	B (26-50% inhibition)	A (1-25% inhibition)	B (26-50% inhibition)	C (51-75% inhibition)	A (1-25% inhibition)	C (51-75% inhibition)								
COc1ccc(-c2c(-c3cccc(OC)c3F)sc3nc(-c4nccn4C)nc(N4CCC(OC)C4)c23)cc1 (centres unmarked) [drawing 806]	51 to 75	51 to 75	D (76-100% inhibition)	C (51-75% inhibition)	D (76-100% inhibition)	A (1-25% inhibition)	D (76-100% inhibition)	C (51-75% inhibition)								
O=C(NC1CCC1)c1nc(-c2ccccn2)nc(O)c1O [drawing 809]	26 to 50	51 to 75	B (26-50% inhibition)	D (76-100% inhibition)	B (26-50% inhibition)	C (51-75% inhibition)	A (1-25% inhibition)	D (76-100% inhibition)								
Cc1c(-c2ccn(C)n2)sc2nc(-c3nccn3C)nc(NCCCS(C)(=O)=O)c12 [drawing 916]									76 to 100	76 to 100	C (51-75% inhibition)	D (76-100% inhibition)	C (51-75% inhibition)	C (51-75% inhibition)	C (51-75% inhibition)	C (51-75% inhibition)
COCCNc1nc(-c2cn(C)cn2)nc2sc(-c3cc(OC)ccc3Cl)c(-c3ccc(OC)cc3)c12 [drawing 795]	26 to 50	26 to 50	D (76-100% inhibition)	B (26-50% inhibition)	D (76-100% inhibition)	B (26-50% inhibition)	D (76-100% inhibition)	B (26-50% inhibition)								
CO[C@H]1C[C@@H](Nc2nc(-c3nccn3C)nc3sc(-c4cnn(C)c4)c(-c4ccccc4)c23)C1 [drawing 892]									76 to 100	51 to 75	D (76-100% inhibition)	D (76-100% inhibition)	D (76-100% inhibition)	D (76-100% inhibition)	D (76-100% inhibition)	D (76-100% inhibition)
Cn1ccnc1-c1nc(O)c(O)c(C(=O)N2CCCC2)n1 [drawing 828]	1 to 25	26 to 50	B (26-50% inhibition)	C (51-75% inhibition)	A (1-25% inhibition)	B (26-50% inhibition)	A (1-25% inhibition)	B (26-50% inhibition)								
COc1nc(-c2ccccn2)nc2c(-c3ccccn3)csc12 [drawing 913]									1 to 25	26 to 50	A (1-25% inhibition)	B (26-50% inhibition)	A (1-25% inhibition)	A (1-25% inhibition)	A (1-25% inhibition)	B (26-50% inhibition)
